Data: paper PMC6572184, “New γ-Halo-δ-lactones and δ-Hydroxy-γ-lactones with Strong Cytotoxic Activity” (Molecules, 2019)
Like-named read-outs stand apart in the source and are kept apart here.

What was measured:
[1] = system: AGS cell lines (human gastric adenocarcinoma); test: MTT reduction cytotoxicity assay; type: cell-based; conditions: Homo sapiens
Method: (§1) Cell cultures: The L929 mouse fibroblasts and human gastric adenocarcinoma cell line AGS were used for in vitro cytotoxicity assays. The cells were maintained under standard conditions (37 ^∘ C, 5% CO 2 ) in 25 cm^2 tissue culture flasks in RPMI-1640 medium supplemented with 10% fetal bovine serum (FBS) and antibiotics: 100 U/mL penicillin and 100 μ g/mL streptomycin. The cell suspension containing 10 ^8 cells in 1 mL, was obtained by treatment of confluent monolayers with 0.25% trypsin solution, washed and subcultured. Cell cultures were supplemented with medium to maintain them in log phase growth. The viability of the cells was assessed by exclusion of trypan blue dye.
(§2) Measurements of cellular metabolic activity and global growth inhibition: L929 cells were seeded into 96-well plates (2 × 10 ^5 cells/well) for 24 h, at 37 ^∘ C, 5% CO2 . Tested compounds 5a–c, 6a–c, 7a–c, 8a–c, 9b,c, 10b,c, 12a and 13a were diluted serially in RPMI-1640 medium in concentrations of 50, 20, 10, 5, 0.5 and 0.1 μ g/mL, added to the cells (100 μ L/well), and incubated under standard conditions for 24 h. The potential harmful effect of lactones on L929 and AGS cells was assessed by the ability of the cells to reduce 3-(4,5-dimethylthiazol-2-yl)-2,5-diphenyltetrazolium bromide (MTT) to formazan. The solution of MTT (5 mg/mL in PBS), was added to each well and the plates were incubated for 4h at 37 ^∘ C. Formazan crystals were dissolved with acidic isopropanol (0.1 M HCl in absolute isopropanol) and the plates were read in a plate reader (Victor 2) at 570 nm. The percentage of MTT reduction was calculated by comparing the absorbance of treated cells to that of untreated control cells. Results are expressed as the mean percentage of viable cells ± standard deviation (SD) of four independent experiments. Statistical significance was accepted at a p-value < 0.05.

[2] = MTT reduction cytotoxicity assay; type: cell-based, human; conditions: human, AGS cells (human gastric adenocarcinoma), 24 h, read-out: mean percentage of viable cells ± SD
Method: as §1, §2

[3] = MTT reduction cytotoxicity assay; type: cell-based, mouse; conditions: mouse, L929 cells (mouse fibroblasts), read-out: mean percentage of viable cells ± SD
Method: as §1, §2

[4] = system: Staphylococcus aureus ATCC 65389; test: Bactericidal activity, CFU counting method; type: cell-based; conditions: S. aureus ATCC 65389; for Number of CFU/mL (× 10^7): 18 h at 37 °C, Control 21.36, Control with DMSO 20.85; for less CFU/mL (reduction of the number of CFU/mL): versus control
Method: (§3) The bacterial cultures: Escherichia coli ATCC 8739 and Staphylococcus aureus ATCC 65389 were grown on Luria–Bertani Agar for 18 h at 37 ^∘ C. The strain suspension was prepared in 0.85% saline, with an optical density equivalent to a 0.5 McFarland standard. Next, the following mixtures were prepared: 180 μ L of sterile enriched broth (BTL), 10 μ L of the bacterial suspension and 10 μ L of the tested compound (range 0.1–50 μ g/mL) solubilized in DMSO. As a negative control, only DMSO was added. As a sterility control, 180 μ L of BTL and 20 μ L saline were used. The microtiter plate was incubated at 37 ^∘ C for 18 h. The colony forming unit (CFU) method was used to evaluate the microbial population. The experiment was repeated three times. Gentamicin was used as the reference antibiotic.

[5] = system: Escherichia coli ATCC 8739; test: Bactericidal activity, CFU counting method; type: cell-based; conditions: E. coli ATCC 8739; 18 h at 37 °C; Control 9.47, Control with DMSO 9.30
Method: as §3

[6] = system: L929 cell lines (mouse fibroblasts); test: MTT reduction cytotoxicity assay; type: cell-based; conditions: 24 h
Method: as §1, §2

Structure (SMILES) | melting point [°C] | IC50 [1] [nM] | viability at 24 h, 0.1 μg/mL [2] [%] | viability at 24 h, 0.5 μg/mL [2] [%] | viability at 24 h, 5 μg/mL [2] [%] | viability at 24 h, 10 μg/mL [2] [%] | viability at 24 h, 20 μg/mL [2] [%] | viability at 24 h, 50 μg/mL [2] [%] | viability at 24 h, 0.1 μg/mL [3] [%] | viability at 24 h, 0.5 μg/mL [3] [%] | viability at 24 h, 5 μg/mL [3] [%] | viability at 24 h, 10 μg/mL [3] [%] | viability at 24 h, 20 μg/mL [3] [%] | viability at 24 h, 50 μg/mL [3] [%] | Number of CFU/mL (× 10^7) [4] | Number of CFU/mL (× 10^7) [5] | bactericidal activity (in words) [4] | less CFU/mL (reduction of the number of CFU/mL) [4] | mean percentage of viable cells ± SD ([6]; 5 μg/mL) [%] | mean percentage of viable cells ± SD ([6]; 10 μg/mL) [%]
C[C@@H]1CC(=O)O[C@@H]1C(I)c1ccc(F)cc1 (relative stereo) [11c, Cis-5-((4-fluorophenyl)iodomethyl)-dihydro-4-methylfuran-2(3H)-one] | 118 to 119 | – | – | – | – | – | – | – | – | – | – | – | – | – | – | – | – | – | – | –
C[C@@H]1CC(=O)O[C@@H]1[C@@H](O)c1cccc2ccccc12 [13a, Cis-dihydro-5-((S)-hydroxy(naphthalen-1-yl)methyl)-4-methylfuran-2(3H)-one] | 123 to 124 | 3700 | 44 ± 0.12 | 39 ± 0.09 | 29 ± 0.05 | 18 ± 0.12 | 10 ± 0.1 | 8 ± 0.08 | 16 ± 0.09 | 12 ± 0.02 | 9 ± 0.03 | 6 ± 0.06 | 5 ± 0.12 | 1 ± 0.07 | 9.12 × 10^7 CFU/mL | 6.02 × 10^7 CFU/mL | – | – | – | –
CC1CC(=O)OC(c2ccccc2)C1Br (stereo not drawn) [7b, Trans,trans-5-bromo-tetrahydro-4-methyl-6-phenylpyran-2-one] | 111 to 112 | 3600 | 40 ± 0.1 | 25 ± 0.1 | 23 ± 0.02 | 20 ± 0.06 | 14 ± 0.03 | 10 ± 0.06 | 25 ± 0.03 | 18 ± 0.08 | 13 ± 0.12 | 10 ± 0.05 | 5 ± 0.15 | 2 ± 0.09 | 10.96 × 10^7 CFU/mL | 8.63 × 10^7 CFU/mL | – | – | – | –
C[C@@H]1CC(=O)O[C@@H]1C(O)c1ccc(F)cc1 (relative stereo) [13c, Cis-5-((4-fluorophenyl)(hydroxy)methyl)-dihydro-4-methylfuran-2(3H)-one] | 118 to 119 | – | – | – | – | – | – | – | – | – | – | – | – | – | – | – | – | – | – | –
C[C@@H]1CC(=O)O[C@H]1[C@@H](O)c1cccc2ccccc12 (mixture of isomers) [12a, Trans-dihydro-5-((S)-hydroxy(naphthalen-1-yl)methyl)-4-methylfuran-2(3H)-one] | – | 4300 | 39 ± 0.09 | 26 ± 0.05 | 22 ± 0.09 | 18 ± 0.05 | 13 ± 0.08 | 9 ± 0.1 | 19 ± 0.15 | 15 ± 0.05 | 10 ± 0.02 | 8 ± 0.06 | 3 ± 0.03 | 2 ± 0.06 | 21.15 × 10^7 CFU/mL | 9.43 × 10^7 CFU/mL | did not show bactericidal activity | – | – | –
C[C@@H]1CC(=O)O[C@H]1C(O)c1ccccc1 (relative stereo) [12b, Trans-dihydro-5-(hydroxy(phenyl)methyl)-4-methylfuran-2(3H)-one] | 86 to 87 | – | – | – | – | – | – | – | – | – | – | – | – | – | – | – | – | – | – | –
CC1CC(=O)OC(c2cccc3ccccc23)C1Br (stereo not drawn) [7a, Trans,trans-5-bromo-tetrahydro-4-methyl-6-(naphthalen-1-yl)pyran-2-one] | 197 to 198 | 2100 | 39 ± 0.02 | 26 ± 0.05 | 25 ± 0.1 | 21 ± 0.03 | 20 ± 0.06 | 8 ± 0.03 | 25 ± 0.02 | 18 ± 0.12 | 12 ± 0.02 | 6 ± 0.07 | 2 ± 0.03 | 1 ± 0.12 | 4.63 × 10^7 CFU/mL | 5.21 × 10^7 CFU/mL | – | 78–83% | – | –
C[C@@H]1CC(=O)O[C@@H]1C(O)c1ccccc1 (relative stereo) [13b, Cis-dihydro-5-(hydroxy(phenyl)methyl)-4-methylfuran-2(3H)-one] | 89 to 91 | – | – | – | – | – | – | – | – | – | – | – | – | – | – | – | – | – | – | –
C[C@@H]1CC(=O)O[C@@H]1C(I)c1ccccc1 (relative stereo) [11b, Cis-dihydro-5-(iodo(phenyl)methyl)-4-methylfuran-2(3H)-one] | 86 to 87 | – | – | – | – | – | – | – | – | – | – | – | – | – | – | – | – | – | – | –
CC1CC(=O)OC(c2ccccc2)C1Cl (stereo not drawn) [5b, Trans,trans-5-chloro-tetrahydro-4-methyl-6-phenylpyran-2-one] | 105 to 106.5 | 2300 | 35 ± 0.06 | 20 ± 0.09 | 16 ± 0.06 | 14 ± 0.12 | 11 ± 0.07 | 8 ± 0.09 | 20 ± 0.08 | 18 ± 0.15 | – | – | 4 ± 0.02 | 1 ± 0.03 | 7.63 × 10^7 CFU/mL | 4.06 × 10^7 CFU/mL | – | – | 12 ± 0.05 | 7 ± 0.06
C[C@@H]1CC(=O)O[C@H](c2cccc3ccccc23)[C@H]1Cl (relative stereo) [5a, Trans,trans-5-chloro-tetrahydro-4-methyl-6-(naphthalen-1-yl)pyran-2-one] | 157 to 158 | 1900 | 54 ± 0.07 | 48 ± 0.05 | 43 ± 0.09 | 27 ± 0.1 | 18 ± 0.08 | 15 ± 0.01 | 17 ± 0.09 | 15 ± 0.02 | 10 ± 0.03 | 8 ± 0.07 | 5 ± 0.06 | 1 ± 0.01 | 2.74 × 10^7 CFU/mL | 6.41 × 10^7 CFU/mL | – | 87% | – | –
C[C@@H]1CC(=O)O[C@H]1C(O)c1ccc(F)cc1 (relative stereo) [12c, Trans-5-((4-fluorophenyl)(hydroxy)methyl)-dihydro-4-methylfuran-2(3H)-one] | 118 to 119 | – | – | – | – | – | – | – | – | – | – | – | – | – | – | – | – | – | – | –
